Values after ≈ are worked out from the molar mass of the structure shown.

Format in all cases: functional
Test [1] has as its system Escherichia coli. Kind of test: Antibacterial activity against Escherichia coli ATCC 25922 by microbroth dilution method.
The subject of test [2] is Escherichia coli. Description: Antibacterial activity against drug-resistant Escherichia coli by microbroth dilution method.
Test [3] deals with Candida albicans. Kind of test: Antifungal activity against drug-resistant Candida albicans.
Another test deals with Aspergillus fumigatus. Kind of test: Antifungal activity against Aspergillus fumigatus.
The test system of test [4] is Pseudomonas aeruginosa. Kind of test: Antibacterial activity against Pseudomonas aeruginosa ATCC 27853 by microbroth dilution method.
For test [5], the system named is Staphylococcus aureus. Description: Antibacterial activity against Staphylococcus aureus ATCC 29213 by microbroth dilution method. (Dilution methods test growth across graded concentrations, often in twofold steps.)
The subject of another test is Acinetobacter baumannii. Description: Antibacterial activity against Acinetobacter baumannii by microbroth dilution method.
For test [6], the system named is Pseudomonas aeruginosa. Description: Antibacterial activity against Pseudomonas aeruginosa by microbroth dilution method.
The next test has as its system Enterococcus faecalis. Kind of test: Antibacterial activity against drug-resistant Enterococcus faecalis by microbroth dilution method.
The next test relates to Klebsiella pneumoniae. Kind of test: Antibacterial activity against Klebsiella pneumoniae by microbroth dilution method.
For test [7], the system named is Staphylococcus aureus. Kind of test: Antibacterial activity against methicillin-resistant Staphylococcus aureus N315 by microbroth dilution method.
Test [8] has as its system Staphylococcus aureus. Kind of test: Antibacterial activity against Staphylococcus aureus ATCC 25923 by microbroth dilution method.
Test [9] relates to Staphylococcus aureus. Description: Antibacterial activity against drug-resistant Staphylococcus aureus by microbroth dilution method.
The test system of test [10] is Candida albicans. Description: Antifungal activity against Candida albicans ATCC 90023.
A further test has as its system Candida tropicalis. Kind of test: Antifungal activity against drug-resistant Candida tropicalis.
The next test concerns Candida parapsilosis. Kind of test: Antifungal activity against Candida parapsilosis ATCC 22019. To be noted: Lodderomyces parapsilosis.

On to `Nc1nc(-c2c[nH]c3c(F)cc(F)cc3c2=O)cs1`, for which the MIC (as a rule, the lowest concentration that inhibits growth of the organism) against Escherichia coli [1] was 459 µM (≈ 128 µg/mL); in the test with Escherichia coli [2] it was 459 µM (≈ 128 µg/mL); in the test with Candida albicans [3] it was 115 µM (≈ 32.1 µg/mL); with Aspergillus fumigatus, 459 µM (≈ 128 µg/mL); with Pseudomonas aeruginosa [4] it was 229 µM (≈ 64 µg/mL); against Staphylococcus aureus [5] it was 918 µM (≈ 256 µg/mL). The MIC in the test on Acinetobacter baumannii is 459 µM (≈ 128 µg/mL); against Pseudomonas aeruginosa [6], 459 µM (≈ 128 µg/mL); against Enterococcus faecalis it was 229 µM (≈ 64 µg/mL); against Klebsiella pneumoniae, 459 µM (≈ 128 µg/mL); with Staphylococcus aureus [7], 459 µM (≈ 128 µg/mL); against Staphylococcus aureus [8] it was 459 µM (≈ 128 µg/mL). Also, the MIC in the test on Staphylococcus aureus [9] came out at 918 µM (≈ 256 µg/mL); against Candida albicans [10], 115 µM (≈ 32.1 µg/mL); against Candida tropicalis, 229 µM (≈ 64 µg/mL); against Candida parapsilosis, 459 µM (≈ 128 µg/mL).
`C/C(Cn1cc(-c2csc(N)n2)c(=O)c2cc(F)cc(F)c21)=N\NC(N)=S`: the minimum inhibitory concentration (MIC) in the test on Escherichia coli [1] is 1260 µM (≈ 513 µg/mL); in the test on Escherichia coli [2], 1260 µM (≈ 513 µg/mL); in the test with Candida albicans [3], 627 µM (≈ 256 µg/mL); against Aspergillus fumigatus, 1260 µM (≈ 513 µg/mL); with Pseudomonas aeruginosa [4], 627 µM (≈ 256 µg/mL); against Staphylococcus aureus [5], 78 µM (≈ 31.9 µg/mL). Also, the minimal inhibitory concentration (MIC) was found to be 627 µM (≈ 256 µg/mL) with Acinetobacter baumannii; 627 µM (≈ 256 µg/mL) with Pseudomonas aeruginosa [6]; 1260 µM (≈ 513 µg/mL) with Enterococcus faecalis; 627 µM (≈ 256 µg/mL) with Klebsiella pneumoniae; 314 µM (≈ 128 µg/mL) with Staphylococcus aureus [7]; 157 µM (≈ 64.1 µg/mL) against Staphylococcus aureus [8]. In addition, the MIC came to 78 µM (≈ 31.9 µg/mL) against Staphylococcus aureus [9], 627 µM (≈ 256 µg/mL) in the test on Candida albicans [10], 627 µM (≈ 256 µg/mL) in the test with Candida tropicalis and 314 µM (≈ 128 µg/mL) against Candida parapsilosis.
Consider `Nc1nc(-c2c[nH]c3cc(F)c(F)cc3c2=O)cs1`, for which the MIC worked out at 459 µM (≈ 128 µg/mL) against Escherichia coli [1]; 459 µM (≈ 128 µg/mL) in the test with Escherichia coli [2]; 229 µM (≈ 64 µg/mL) in the test on Candida albicans [3]; 229 µM (≈ 64 µg/mL) in the test on Aspergillus fumigatus; 459 µM (≈ 128 µg/mL) in the test on Pseudomonas aeruginosa [4]; 459 µM (≈ 128 µg/mL) against Staphylococcus aureus [5]. Moreover, the MIC against Acinetobacter baumannii came to 918 µM (≈ 256 µg/mL); in the test with Pseudomonas aeruginosa [6], 459 µM (≈ 128 µg/mL); in the test on Enterococcus faecalis it was 918 µM (≈ 256 µg/mL); against Klebsiella pneumoniae, 918 µM (≈ 256 µg/mL); against Staphylococcus aureus [7], 459 µM (≈ 128 µg/mL); in the test on Staphylococcus aureus [8] it was 459 µM (≈ 128 µg/mL). For the same compound, the MIC amounted to 459 µM (≈ 128 µg/mL) against Staphylococcus aureus [9], 229 µM (≈ 64 µg/mL) in the test on Candida albicans [10], 459 µM (≈ 128 µg/mL) against Candida tropicalis and 459 µM (≈ 128 µg/mL) with Candida parapsilosis.
With `CCOC(=O)c1cn(C/C(C)=N/NC(N)=S)c2cc(Cl)c(F)cc2c1=O`, the minimum inhibitory concentration (MIC) is 1290 µM (≈ 513 µg/mL) against Escherichia coli [1]; 1290 µM (≈ 513 µg/mL) against Escherichia coli [2]; 1290 µM (≈ 513 µg/mL) against Candida albicans [3]; 322 µM (≈ 128 µg/mL) against Aspergillus fumigatus; 322 µM (≈ 128 µg/mL) against Pseudomonas aeruginosa [4]; 643 µM (≈ 256 µg/mL) against Staphylococcus aureus [5]. Besides, the minimum inhibitory concentration (MIC) in the test on Acinetobacter baumannii came to 643 µM (≈ 256 µg/mL); against Pseudomonas aeruginosa [6], 322 µM (≈ 128 µg/mL); in the test on Enterococcus faecalis, 643 µM (≈ 256 µg/mL); in the test with Klebsiella pneumoniae, 643 µM (≈ 256 µg/mL); with Staphylococcus aureus [7], 643 µM (≈ 256 µg/mL); in the test with Staphylococcus aureus [8], 643 µM (≈ 256 µg/mL). The MIC amounted to 643 µM (≈ 256 µg/mL) with Staphylococcus aureus [9], 643 µM (≈ 256 µg/mL) against Candida albicans [10], 643 µM (≈ 256 µg/mL) against Candida tropicalis and 161 µM (≈ 64.2 µg/mL) in the test with Candida parapsilosis.
As to `CC(=O)Cn1cc(-c2csc(C)n2)c(=O)c2cc(F)cc(F)c21`, the MIC against Escherichia coli [1] was determined as 1530 µM (≈ 513 µg/mL); against Escherichia coli [2] it was 1530 µM (≈ 513 µg/mL); in the test with Candida albicans [3] it was 1530 µM (≈ 513 µg/mL); with Aspergillus fumigatus it was 383 µM (≈ 128 µg/mL); against Pseudomonas aeruginosa [4], 1530 µM (≈ 513 µg/mL); against Staphylococcus aureus [5] it was 1530 µM (≈ 513 µg/mL). For the same compound, the minimal inhibitory concentration (MIC) amounted to 766 µM (≈ 256 µg/mL) against Acinetobacter baumannii; 1530 µM (≈ 513 µg/mL) in the test with Pseudomonas aeruginosa [6]; 1530 µM (≈ 513 µg/mL) against Enterococcus faecalis; 383 µM (≈ 128 µg/mL) against Klebsiella pneumoniae; 1530 µM (≈ 513 µg/mL) against Staphylococcus aureus [7]; 1530 µM (≈ 513 µg/mL) against Staphylococcus aureus [8]. In addition, the MIC with Staphylococcus aureus [9] is 1530 µM (≈ 513 µg/mL); against Candida albicans [10], 766 µM (≈ 256 µg/mL); in the test on Candida tropicalis, 1530 µM (≈ 513 µg/mL); against Candida parapsilosis it was 1530 µM (≈ 513 µg/mL).
Consider `C/C(Cn1cc(-c2csc(C)n2)c(=O)c2cccc(F)c21)=N\NC(N)=S`, for which the minimum inhibitory concentration (MIC) in the test with Escherichia coli [1] stood at 329 µM (≈ 128 µg/mL); against Escherichia coli [2] it was 329 µM (≈ 128 µg/mL); against Candida albicans [3], 1320 µM (≈ 513 µg/mL); against Aspergillus fumigatus, 658 µM (≈ 256 µg/mL); against Pseudomonas aeruginosa [4], 329 µM (≈ 128 µg/mL); against Staphylococcus aureus [5], 329 µM (≈ 128 µg/mL). Besides, the MIC against Acinetobacter baumannii amounted to 329 µM (≈ 128 µg/mL); in the test on Pseudomonas aeruginosa [6] it was 329 µM (≈ 128 µg/mL); against Enterococcus faecalis it was 658 µM (≈ 256 µg/mL); in the test on Klebsiella pneumoniae it was 1320 µM (≈ 513 µg/mL); with Staphylococcus aureus [7], 1320 µM (≈ 513 µg/mL); in the test on Staphylococcus aureus [8], 658 µM (≈ 256 µg/mL). Further, the minimum inhibitory concentration (MIC) in the test on Staphylococcus aureus [9] is 1320 µM (≈ 513 µg/mL); in the test on Candida albicans [10] it was 1320 µM (≈ 513 µg/mL); in the test on Candida tropicalis it was 329 µM (≈ 128 µg/mL); in the test with Candida parapsilosis, 658 µM (≈ 256 µg/mL).
As to `CC(=O)Cn1cc(-c2csc(C)n2)c(=O)c2cc(F)ccc21`, the MIC in the test on Escherichia coli [1] came out at 1620 µM (≈ 512 µg/mL); against Escherichia coli [2] it was 1620 µM (≈ 512 µg/mL); with Candida albicans [3], 810 µM (≈ 256 µg/mL); in the test on Aspergillus fumigatus it was 810 µM (≈ 256 µg/mL); in the test on Pseudomonas aeruginosa [4], 810 µM (≈ 256 µg/mL); against Staphylococcus aureus [5], 405 µM (≈ 128 µg/mL). The minimal inhibitory concentration (MIC) against Acinetobacter baumannii is 1620 µM (≈ 512 µg/mL); with Pseudomonas aeruginosa [6] it was 810 µM (≈ 256 µg/mL); against Enterococcus faecalis, 1620 µM (≈ 512 µg/mL); with Klebsiella pneumoniae, 810 µM (≈ 256 µg/mL); against Staphylococcus aureus [7], 1620 µM (≈ 512 µg/mL); in the test with Staphylococcus aureus [8], 1620 µM (≈ 512 µg/mL). Further, the MIC against Staphylococcus aureus [9] worked out at 1620 µM (≈ 512 µg/mL); in the test with Candida albicans [10], 405 µM (≈ 128 µg/mL); in the test with Candida tropicalis it was 810 µM (≈ 256 µg/mL); against Candida parapsilosis, 1620 µM (≈ 512 µg/mL).
